Test results published in ChEMBL document CHEMBL1201862, “PubChem BioAssay data set” (2004).
Calls of active or inactive are those of the source.

Assays:
[1] = molecular target: T1, Coagulation factor XII (Homo sapiens, UniProt P00748); type: functional;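 also: activated factor XIIa alpha cleaving a fluorogenic AMC peptide substrate; inhibitor potency from loss of enzyme activity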
T1 sequence (P00748 whole entry): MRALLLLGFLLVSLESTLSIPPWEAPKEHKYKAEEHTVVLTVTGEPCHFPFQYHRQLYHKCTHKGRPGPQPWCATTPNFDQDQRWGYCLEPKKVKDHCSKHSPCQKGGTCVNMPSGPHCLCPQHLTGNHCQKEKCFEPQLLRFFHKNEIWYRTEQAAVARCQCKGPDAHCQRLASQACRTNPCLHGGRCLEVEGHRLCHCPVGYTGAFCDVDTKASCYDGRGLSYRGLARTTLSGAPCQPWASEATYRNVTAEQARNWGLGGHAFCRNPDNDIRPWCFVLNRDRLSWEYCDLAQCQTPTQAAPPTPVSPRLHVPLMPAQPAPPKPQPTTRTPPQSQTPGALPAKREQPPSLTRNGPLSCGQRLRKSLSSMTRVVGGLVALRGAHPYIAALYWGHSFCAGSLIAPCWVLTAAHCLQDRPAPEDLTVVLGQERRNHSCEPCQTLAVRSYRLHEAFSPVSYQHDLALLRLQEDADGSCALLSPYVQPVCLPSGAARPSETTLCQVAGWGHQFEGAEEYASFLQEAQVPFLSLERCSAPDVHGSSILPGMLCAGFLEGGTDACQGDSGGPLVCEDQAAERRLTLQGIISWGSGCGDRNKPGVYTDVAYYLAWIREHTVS

[2] = molecular target: T2, Aminopeptidase N (Plasmodium falciparum FcB1/Columbia, UniProt O96935); assay: malaria alanyl aminopeptidase activity blockers – biochemical, fluorogenic H-Leu-NHMec substrate, 1536-well (AID 1445); set-up: species or system Plasmodium falciparum 3D7, 3D7
T2 sequence (O96935 whole entry): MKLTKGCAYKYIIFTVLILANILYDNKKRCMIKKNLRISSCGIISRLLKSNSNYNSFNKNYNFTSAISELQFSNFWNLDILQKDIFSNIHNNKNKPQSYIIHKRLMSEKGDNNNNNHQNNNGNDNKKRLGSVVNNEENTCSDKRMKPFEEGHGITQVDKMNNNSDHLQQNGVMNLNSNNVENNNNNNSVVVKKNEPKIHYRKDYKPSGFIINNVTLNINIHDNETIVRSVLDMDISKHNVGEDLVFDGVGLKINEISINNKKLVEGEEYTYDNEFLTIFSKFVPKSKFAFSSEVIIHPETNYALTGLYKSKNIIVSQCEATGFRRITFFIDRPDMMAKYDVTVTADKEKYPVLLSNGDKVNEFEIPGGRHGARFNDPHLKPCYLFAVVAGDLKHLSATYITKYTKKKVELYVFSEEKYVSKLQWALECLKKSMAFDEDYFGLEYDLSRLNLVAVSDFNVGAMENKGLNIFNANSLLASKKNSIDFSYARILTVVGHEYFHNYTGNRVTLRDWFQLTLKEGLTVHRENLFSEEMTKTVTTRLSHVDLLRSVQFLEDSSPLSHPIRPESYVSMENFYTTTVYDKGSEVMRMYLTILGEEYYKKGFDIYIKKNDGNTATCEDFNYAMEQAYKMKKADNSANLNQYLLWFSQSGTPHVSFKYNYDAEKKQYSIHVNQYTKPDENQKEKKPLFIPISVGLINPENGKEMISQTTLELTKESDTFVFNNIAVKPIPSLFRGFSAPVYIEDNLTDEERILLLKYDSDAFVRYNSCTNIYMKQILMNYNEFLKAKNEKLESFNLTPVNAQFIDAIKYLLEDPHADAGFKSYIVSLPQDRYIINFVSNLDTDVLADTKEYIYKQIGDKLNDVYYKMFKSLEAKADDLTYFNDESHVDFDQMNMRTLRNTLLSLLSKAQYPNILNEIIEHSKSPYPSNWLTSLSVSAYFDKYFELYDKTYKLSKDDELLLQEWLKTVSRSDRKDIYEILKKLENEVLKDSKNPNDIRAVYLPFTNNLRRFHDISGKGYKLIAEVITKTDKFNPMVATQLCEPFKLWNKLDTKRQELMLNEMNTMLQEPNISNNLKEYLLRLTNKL

[3] = molecular target: Peroxisome proliferator-activated receptor gamma/Nuclear receptor coactivator 3 (Homo sapiens, UniProt P37231); assay: TR-FRET dose response biochemical High Throughput Screening assay for agonists of the steroid receptor coactivator 3 (SRC-3) recruitment by the peroxisome proliferator-activated receptor gamma (PPAR gamma): non-selective agonists. [Related pubchem assays: 1301 (Confirmation screen.), 1048 (Primary screen.)]; type: functional
[4] = molecular target: Peroxisome proliferator-activated receptor gamma/Nuclear receptor coactivator 2 (Homo sapiens, UniProt P37231); assay: (§1) TR-FRET dose response biochemical High Throughput Screening assay for agonists of the steroid receptor coactivator 2 (SRC-2) recruitment by the peroxisome proliferator-activated receptor gamma (PPAR gamma): non-selective agonists. [Related pubchem assays: 1297, 1032 ]; type: functional
[5] = molecular target: Peroxisome proliferator-activated receptor gamma/Nuclear receptor coactivator 1 (Homo sapiens, UniProt P37231); assay: as §1, with “1 (SRC-1)” for “2 (SRC-2)”, “assays (depositor defined):AID1300, AID1808, AID504735, AID631]” for “assays: 1297, 1032 ]”; type: protein assay
[6] = molecular target: Eukaryotic translation initiation factor 4E (Mus musculus, UniProt P63073); assay: blockers of eIF4G binding by eIF4E – biochemical, TR-FRET, dose response (AID 855); type: functional;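 also: potency for disrupting eIF4E binding to eIF4GI seen as loss of FRET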
[7] = alpha-synuclein stem-loop luciferase translation blockers – H4 neuroglioma cells, luminescence, confirmation (AID 1988); type: functional, cell-based
[8] = HEK-293T cell viability reduction – luminescence, B-cell screen hits, cytotoxicity control for BCR NF-kB inhibitor project, dose response (AID 489021); type: functional, cell-based;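 also: HEK-293T cells carrying an NF-kB luciferase reporter; cells exposed to compound for about 14 hours before viability readout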
[9] = test system: H9c2; assay: cells; type: functional, cell-based; conditions: Rattus norvegicus, H9c2, Myocardium;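 also: confirmatory concentration-response retest of ultra-high-throughput screening hits for modulation of myocardial damage; cell death induced by hydrogen peroxide oxidative stress; compound pretreatment for 60 min then peroxide exposure for 2 h; potency is for protecting the cells against peroxide damage rather than for killing them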
[10] = Luminescence Cell-Based Dose Response HTS to Identify Inhibitors of 5'UTR Stem-Loop Driven Prion Protein mRNA Translation in H4 Neuroglioblastoma Cells. [Related pubchem assays: 1827 (Project Summary), 1813 (Primary HTS)]; type: functional
[11] = luciferase reporter signal suppression in cells – H4 neuroglioma cells, luminescence, dose response (AID 1990); type: functional, cell-based
[12] = molecular target: T3, RNA-binding protein pos-1 (Caenorhabditis elegans, UniProt G5EF15); assay: disruptors of C. elegans POS-1 RNA interaction – biochemical, fluorescence polarization, dose response (AID 1964);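 also: purified POS-1 fused to maltose binding protein made in E. coli; potency of compounds blocking POS-1 binding to fluorescent RNA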
T3 sequence (G5EF15 whole entry): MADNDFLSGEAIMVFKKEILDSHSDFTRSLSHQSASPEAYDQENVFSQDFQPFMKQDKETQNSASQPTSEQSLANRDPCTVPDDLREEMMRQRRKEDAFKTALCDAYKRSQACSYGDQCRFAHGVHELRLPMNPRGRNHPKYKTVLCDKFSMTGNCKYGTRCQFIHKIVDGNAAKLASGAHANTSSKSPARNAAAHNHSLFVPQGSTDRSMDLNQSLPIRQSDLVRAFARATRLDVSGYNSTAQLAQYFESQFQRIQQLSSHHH

[13] = molecular target: T4, Zinc finger protein mex-5 (Caenorhabditis elegans, UniProt Q9XUB2); assay: potency of MEX-5 RNA-binding blockers – biochemical, C. elegans, fluorescence polarization, dose response (AID 1960)
T4 sequence (Q9XUB2 whole entry): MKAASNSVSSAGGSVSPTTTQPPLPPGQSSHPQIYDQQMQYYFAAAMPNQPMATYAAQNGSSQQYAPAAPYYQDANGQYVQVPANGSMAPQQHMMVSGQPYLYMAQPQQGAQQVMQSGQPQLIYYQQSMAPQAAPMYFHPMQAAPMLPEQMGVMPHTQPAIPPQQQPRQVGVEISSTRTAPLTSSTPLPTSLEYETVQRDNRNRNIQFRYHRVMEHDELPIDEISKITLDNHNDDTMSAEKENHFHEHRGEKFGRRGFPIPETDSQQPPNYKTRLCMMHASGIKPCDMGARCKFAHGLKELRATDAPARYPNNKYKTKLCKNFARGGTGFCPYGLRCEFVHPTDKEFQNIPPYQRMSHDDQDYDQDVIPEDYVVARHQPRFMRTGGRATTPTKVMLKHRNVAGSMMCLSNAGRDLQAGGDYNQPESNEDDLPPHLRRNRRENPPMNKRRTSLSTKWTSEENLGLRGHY

[14] = test system: HeLa; assay: viability loss in HeLa cells – cell-based, 24 h, cherry-picked samples, cytotoxicity control, dose response (AID 504726); type: functional; conditions: Homo sapiens;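 also: potency for cytotoxicity as loss of luminescence signal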
[15] = molecular target: G-protein coupled receptor 55 (Homo sapiens, UniProt Q9Y2T6); assay: selective activators of receptor GPR55 – imaging, U2OS cells, beta-arrestin-GFP redistribution, primary screen (AID 1961); type: functional
[16] = molecular target: T5, Voltage-gated N-type calcium channel alpha-1B subunit/Amyloid beta A4 precursor protein-binding family A member 1 (Homo sapiens, UniProt Q00975+Q02410); type: protein assay
[17] = molecular target: T5, Voltage-gated N-type calcium channel alpha-1B subunit/Amyloid beta A4 precursor protein-binding family A member 1; type: protein assay; remark: listed apart in the source
[18] = test system: HEK293; assay: cells; conditions: Homo sapiens
[19] = test system: HEK293; assay: cells; conditions: Homo sapiens; remark: listed apart in the source

T5 sequence (Q00975 whole entry): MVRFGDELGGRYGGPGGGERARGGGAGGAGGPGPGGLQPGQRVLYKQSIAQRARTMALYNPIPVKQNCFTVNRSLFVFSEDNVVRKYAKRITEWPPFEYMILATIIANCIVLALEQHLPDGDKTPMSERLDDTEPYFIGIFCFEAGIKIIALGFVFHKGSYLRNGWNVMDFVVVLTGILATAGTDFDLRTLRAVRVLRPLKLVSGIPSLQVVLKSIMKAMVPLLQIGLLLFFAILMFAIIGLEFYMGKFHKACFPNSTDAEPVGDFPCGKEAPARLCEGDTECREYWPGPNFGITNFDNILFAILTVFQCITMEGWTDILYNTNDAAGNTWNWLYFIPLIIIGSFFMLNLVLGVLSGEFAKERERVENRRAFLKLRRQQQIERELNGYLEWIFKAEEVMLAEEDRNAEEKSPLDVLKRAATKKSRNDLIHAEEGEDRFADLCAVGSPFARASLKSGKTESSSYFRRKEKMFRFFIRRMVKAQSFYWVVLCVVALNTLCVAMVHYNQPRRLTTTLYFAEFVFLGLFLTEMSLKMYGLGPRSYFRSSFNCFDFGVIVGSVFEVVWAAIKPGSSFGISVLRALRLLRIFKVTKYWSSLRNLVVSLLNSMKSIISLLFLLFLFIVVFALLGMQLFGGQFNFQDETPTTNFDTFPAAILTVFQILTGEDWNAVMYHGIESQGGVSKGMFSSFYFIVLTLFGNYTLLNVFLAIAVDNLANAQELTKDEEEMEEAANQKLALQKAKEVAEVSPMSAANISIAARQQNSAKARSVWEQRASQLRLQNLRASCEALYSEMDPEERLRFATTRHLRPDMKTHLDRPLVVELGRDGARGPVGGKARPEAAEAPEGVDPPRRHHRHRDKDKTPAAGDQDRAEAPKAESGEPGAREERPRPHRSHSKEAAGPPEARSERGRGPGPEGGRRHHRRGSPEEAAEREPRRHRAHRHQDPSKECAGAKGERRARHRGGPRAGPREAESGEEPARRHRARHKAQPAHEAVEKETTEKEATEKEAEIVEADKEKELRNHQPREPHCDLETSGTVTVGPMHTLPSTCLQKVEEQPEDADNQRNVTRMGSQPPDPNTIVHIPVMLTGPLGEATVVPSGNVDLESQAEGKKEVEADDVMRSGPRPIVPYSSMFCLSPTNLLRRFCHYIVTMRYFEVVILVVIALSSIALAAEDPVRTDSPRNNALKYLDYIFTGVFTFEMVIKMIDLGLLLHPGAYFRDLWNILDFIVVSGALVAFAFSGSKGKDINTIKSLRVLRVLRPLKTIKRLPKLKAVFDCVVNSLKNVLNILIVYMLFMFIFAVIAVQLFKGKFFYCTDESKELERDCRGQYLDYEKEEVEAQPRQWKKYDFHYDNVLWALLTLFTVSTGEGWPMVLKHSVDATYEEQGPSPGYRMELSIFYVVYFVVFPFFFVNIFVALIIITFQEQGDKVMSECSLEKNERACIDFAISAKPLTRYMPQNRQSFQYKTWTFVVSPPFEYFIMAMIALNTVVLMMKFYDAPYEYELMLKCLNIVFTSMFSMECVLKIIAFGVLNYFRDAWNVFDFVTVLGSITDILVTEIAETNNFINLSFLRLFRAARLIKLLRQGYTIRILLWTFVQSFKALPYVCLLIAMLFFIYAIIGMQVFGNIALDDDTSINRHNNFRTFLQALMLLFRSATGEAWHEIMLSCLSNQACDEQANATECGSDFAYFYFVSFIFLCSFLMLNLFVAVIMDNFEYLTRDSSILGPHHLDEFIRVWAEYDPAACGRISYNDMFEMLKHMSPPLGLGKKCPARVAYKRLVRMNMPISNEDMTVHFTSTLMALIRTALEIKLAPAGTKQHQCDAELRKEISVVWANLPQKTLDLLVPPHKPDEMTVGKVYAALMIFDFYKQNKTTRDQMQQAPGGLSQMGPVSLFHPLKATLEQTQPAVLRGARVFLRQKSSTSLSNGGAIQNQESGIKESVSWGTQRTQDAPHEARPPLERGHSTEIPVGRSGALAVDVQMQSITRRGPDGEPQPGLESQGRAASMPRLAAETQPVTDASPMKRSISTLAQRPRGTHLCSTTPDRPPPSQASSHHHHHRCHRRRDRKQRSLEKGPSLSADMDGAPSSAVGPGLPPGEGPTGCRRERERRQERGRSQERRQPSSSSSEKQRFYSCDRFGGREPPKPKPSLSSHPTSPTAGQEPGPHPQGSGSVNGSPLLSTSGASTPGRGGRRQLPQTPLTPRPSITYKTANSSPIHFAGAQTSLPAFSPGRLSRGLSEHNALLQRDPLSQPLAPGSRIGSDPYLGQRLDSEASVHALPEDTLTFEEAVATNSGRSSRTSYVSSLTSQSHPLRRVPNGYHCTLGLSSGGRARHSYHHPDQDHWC
T5 sequence (Q02410 whole entry): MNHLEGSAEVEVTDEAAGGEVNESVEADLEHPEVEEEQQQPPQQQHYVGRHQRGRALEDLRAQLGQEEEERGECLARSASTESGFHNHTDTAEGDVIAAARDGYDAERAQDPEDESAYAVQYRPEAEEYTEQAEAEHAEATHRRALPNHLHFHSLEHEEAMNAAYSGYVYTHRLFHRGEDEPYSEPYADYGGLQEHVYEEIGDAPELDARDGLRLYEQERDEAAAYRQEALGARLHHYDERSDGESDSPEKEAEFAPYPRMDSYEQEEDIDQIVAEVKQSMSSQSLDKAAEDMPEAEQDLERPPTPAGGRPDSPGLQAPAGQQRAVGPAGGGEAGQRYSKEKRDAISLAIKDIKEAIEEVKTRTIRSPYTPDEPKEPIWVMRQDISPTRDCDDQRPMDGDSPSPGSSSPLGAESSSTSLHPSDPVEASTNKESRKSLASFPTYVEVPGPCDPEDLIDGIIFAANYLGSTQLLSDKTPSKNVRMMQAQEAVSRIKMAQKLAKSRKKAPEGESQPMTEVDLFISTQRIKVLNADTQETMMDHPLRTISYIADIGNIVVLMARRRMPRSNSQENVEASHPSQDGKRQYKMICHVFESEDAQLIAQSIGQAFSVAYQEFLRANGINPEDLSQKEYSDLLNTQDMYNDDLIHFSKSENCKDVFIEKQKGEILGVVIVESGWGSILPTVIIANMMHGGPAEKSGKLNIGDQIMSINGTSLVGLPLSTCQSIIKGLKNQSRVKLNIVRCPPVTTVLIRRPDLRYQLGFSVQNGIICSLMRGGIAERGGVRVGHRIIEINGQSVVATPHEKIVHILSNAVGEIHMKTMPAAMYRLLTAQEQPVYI
Eukaryotic translation initiation factor 4E, sequence (P63073 whole entry): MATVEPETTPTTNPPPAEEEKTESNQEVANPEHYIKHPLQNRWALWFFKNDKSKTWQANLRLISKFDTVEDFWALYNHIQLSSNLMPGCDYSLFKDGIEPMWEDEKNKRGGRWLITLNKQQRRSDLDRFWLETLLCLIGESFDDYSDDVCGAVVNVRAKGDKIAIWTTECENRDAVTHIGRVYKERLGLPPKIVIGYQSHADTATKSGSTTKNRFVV
G-protein coupled receptor 55, sequence (Q9Y2T6 whole entry): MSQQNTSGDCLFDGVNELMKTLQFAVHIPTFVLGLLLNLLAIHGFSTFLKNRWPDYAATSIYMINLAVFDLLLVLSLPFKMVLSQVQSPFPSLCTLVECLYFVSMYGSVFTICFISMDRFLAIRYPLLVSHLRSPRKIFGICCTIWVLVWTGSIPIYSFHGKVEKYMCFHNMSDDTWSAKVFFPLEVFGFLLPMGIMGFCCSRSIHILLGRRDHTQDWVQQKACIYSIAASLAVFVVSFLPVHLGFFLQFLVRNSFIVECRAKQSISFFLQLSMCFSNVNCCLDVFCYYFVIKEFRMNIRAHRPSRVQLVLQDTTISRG

## CCOC(=O)c1cn(Cc2ccccc2)nn1
[1]
  IC50: > 50 µM (inactive)

## O=C(/C=C/c1cccs1)NC(=S)Nc1ccc(C(=O)O)cc1
[2]
  IC50: 28.8 µM (active)

## O=C(C1=C(O)C(=O)N(CCCN2CCOCC2)C1c1ccncc1)c1cc2ccccc2o1 (stereo unspecified)
[3]
  EC50: > 79.4 µM (not active)
[4]
  EC50: > 79.4 µM (not active)
[5]
  EC50: > 79.4 µM (inactive)

## Cc1ccccc1CSc1nncn1N
[6]
  IC50: > 64 µM (inactive)

## CCOC(=O)C1=NN(C(=O)c2cccc(Br)c2)C(O)(C(C)(C)C)C1 (stereo unspecified)
[2]
  IC50: 44 µM (active)

## COc1cc(OC)cc(-c2cc3nc(C)c(CCC(=O)Nc4nc(C)cs4)c(C)n3n2)c1
[7]
  EC50: 24.2 µM (active)
[8]
  IC50: > 80 µM (inactive)
[9]
  IC50: > 79 µM (inactive)
[10]
  EC50: 13.2 µM (active)
[11]
  EC50: 16.9 µM (active)

## CCN1/C(=C2/SC(=S)N(NC(C)=O)C2=O)Sc2ccc(OC)cc21
[12]
  EC50: > 300 µM (not active)
[13]
  EC50: > 300 µM (not active)
[14]
  AC50: 122 µM (active)

## CCc1cccc(OCC(=O)Nc2cc(S(=O)(=O)N3CCOCC3)ccc2N2CCCC2)c1
[15]
  EC50: 4.03 µM (active)

## O=c1oc2c(CN3CCCCC3)c(O)ccc2c2c1CCCC2
[2]
  IC50: 65.3 µM (active)

## COC(=O)c1ccc(OCC(O)CN2CCC(C)CC2)cc1 (stereo unspecified)
[14]
  AC50: 124 µM (active)

## O=C(CC1CCCCC1)NCC1CCCO1 (stereo unspecified)
[6]
  IC50: > 64 µM (inactive)

## COc1ccc(C(=O)NC(=S)Nc2ccc(NC(=O)c3ccco3)cc2)cc1[N+](=O)[O-]
[16]
  IC50: 11.9 µM (active)
[17]
  IC50: > 50 µM (inactive)

## CCc1cc2c(=O)c(Oc3ccccc3F)c(C)oc2c(CN(C)C)c1O
[16]
  IC50: 1.5 µM (active)
[17]
  IC50: > 50 µM (inactive)

## COc1ccc(CCNC(=O)Cn2cnc3c(cnn3-c3ccccc3Cl)c2=O)cc1OC
[6]
  IC50: > 64 µM (inactive)

## Fc1ccc(-c2csc3ncnc(Nc4ccc(N5CCOCC5)cc4)c23)cc1
[18]
  EC50: > 59.6 µM (inactive)
[19]
  EC50: > 59.6 µM (inactive)

## COC(=O)c1ccc(C2C(C(=O)c3cc4ccccc4o3)=C(O)C(=O)N2CCCN(C)C)cc1 (stereo unspecified)
[3]
  EC50: > 79.4 µM (not active)
[4]
  EC50: 51.9 µM (not active)
[5]
  EC50: > 79.4 µM (inactive)

## CN1CCN(c2ncnc(Cl)c2N)CC1
[1]
  IC50: > 50 µM (inactive)

## O=C(O/N=C(\c1ccccc1)c1ccccn1)c1cccc2ccccc12
[15]
  EC50: > 32 µM (inactive)
